This is an account of results in US12187728B2 (Raze Therapeutics, Inc., priority 2015, dated 2025).

The target of the assay is T1, Human MTHFD2 (Homo sapiens, UniProt P13995).
T1 construct: residues 36-350 in Uniport ID P13995; His6 (N); made in house; host or cells: E. coli
T1 sequence (P13995 36-350): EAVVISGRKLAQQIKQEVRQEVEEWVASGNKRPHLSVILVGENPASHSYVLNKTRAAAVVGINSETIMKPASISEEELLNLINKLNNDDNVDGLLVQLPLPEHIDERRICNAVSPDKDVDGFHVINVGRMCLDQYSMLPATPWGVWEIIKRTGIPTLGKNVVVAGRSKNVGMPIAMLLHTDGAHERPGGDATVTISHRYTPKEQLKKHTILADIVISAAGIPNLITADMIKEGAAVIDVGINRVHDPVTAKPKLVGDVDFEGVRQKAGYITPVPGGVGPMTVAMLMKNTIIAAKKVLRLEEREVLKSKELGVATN
The assay can be described thus: MTHFD2 Activity Assay (dehydrogenase activity, diaphorase/resazurin coupled fluorescence). It counts as biochemical. Particulars: inhibitory activity (IC50 and/or binding constant); 0.2 nM MTHFD2, 11 concentrations. An excerpt:
Human MTHFD2 (residues 36-350 in Uniport ID P13995) was expressed as an N-terminal His6 tagged protein and purified in E. coli using nickel capture followed by size-exclusion chromatography.
MTHFD2 dehydrogenase activity oxidizes methylene tetrahyrofolate to methenyl-tetrahydrofolate with the concomitant reduction of NAD to NADH. MTHFD2 dehydrogenase activity was followed by coupling the generation of NADH to diaphorase catalyzed […] of resazurin to fluorescent resorufin. Briefly, control (DMSO) or compound was incubated with 0.2 nM MTHFD2 for 15 minutes in 10.5 μl assay buffer containing 100 mM Hepes, pH 8.0, 5 mM MgCl2, 5 mM KH2PO4, 0.05% BSA, 0.01% Tween-20 in a 384 well Griener, low volume, black plate. 10 μl of substrate buffer containing 70 μM CH2-THF, 1 mM NAD^+, 100 μM Resazurin and 0.42 mg/ml diaphorase was then added to initiate the reaction and the reaction plate was incubated for 30 minutes. 5 μl of 250 mM EDTA was then added to each well to stop the reaction and MTHFD2 activity was quantified by measuring resorufin fluorescence emission at 598 nm following excitation at 525 nm. Activity in positive control wells containing the complete reaction mixture and DMSO alone was set to 100% while activity in negative control wells with the complete reaction mix without MTHFD2 was set to 0%. 11 concentrations of each compound were tested and the fluorescent data at each concentration was normalized to the positive and negative controls and represented as % inhibition. Median inhibitory concentration (IC50) was calculated by fitting % inhibition at each concentration to a 4 parameter logistic fit equation using Graphpad Prizm.
The compound numbers correspond to the compound numbers in Table A (i.e., the example numbers).
`Cn1c(Nc2ccnc([C@H]3C[C@@H]3C(=O)O)c2)nc2c1c(=O)n(Cc1cc3c(Cl)cccc3[nH]1)c(=O)n2C` (single isomer, unassigned) [Example 363, (1S,2S)-2-(4-((1-((4-chloro-1H-indol-2-yl)methyl)-3,7-dimethyl-2,6-dioxo-2,3,6,7-tetrahydro-1H-purin-8-yl)amino)pyridin-2-yl)cyclopropanecarboxylic acid or (1R,2R)-2-(4-((1-((4-chloro-1H-indol-2-yl)methyl)-3,7-dimethyl-2,6-dioxo-2,3,6,7-tetrahydro-1H-purin-8-yl)amino)pyridin-2-yl)cyclopropanecarboxylic acid] showed an IC50 of 10 to 1000 nM.

`Cn1c(Nc2cccc(C3CC(O)C3)n2)nc2c1c(=O)n(Cc1ccc(Cl)c(Cl)c1)c(=O)n2C` (stereo not shown) [Example 352, 1-(3,4-diclorobenzyl)-8-(6-(3-hydroxycyclobutyl)pyridine-2-ylamino)-3,7-dimethyl-1H-purine-2,6(3H,7H)-dione] yielded a half-inhibitory concentration (IC50) of 1000 to 5000 nM.

Turning to `Cn1c(Nc2ccc(C(=O)O)cc2)nc2c1c(=O)n(Cc1cc3ccccc3[nH]1)c(=O)n2C` [Example 297, 4-[[1-(1H-indol-2-ylmethyl)-3,7-dimethyl-2,6-dioxo-purin-8-yl]amino]benzoic acid], the half-maximal inhibitory concentration (IC50) lay in the range of 10 to 1000 nM.

`Cn1c(N[C@H]2C[C@@H](C(=O)O)C2)nc2c1c(=O)n(Cc1ccc(Cl)c(Cl)c1)c(=O)n2C` [Example 259, (±)-(cis)-3-(1-(3,4-dichlorobenzyl)-3,7-dimethyl-2,6-dioxo-2,3,6,7-tetrahydro-1H-purin-8-ylamino)cyclobutanecarboxylic acid] returned an IC50 of 10 to 1000 nM.

In the case of `Cn1c(Nc2cccc(C#N)c2)nc2c1c(=O)n(Cc1ccc(Cl)c(Cl)c1)c(=O)n2C` [Example 130, 3-(1-(3,4-dichlorobenzyl)-3,7-dimethyl-2,6-dioxo-2,3,6,7-tetrahydro-1H-purin-8-ylamino)benzonitrile], the IC50 lay within 1000 to 5000 nM.

As to `Cn1c(NC2CCNC2=O)nc2c1c(=O)n(Cc1cc3ccccc3[nH]1)c(=O)n2C` (racemic) [Example 222, (±)-1-((1H-indol-2-yl)methyl)-3,7-dimethyl-8-(2-oxopyrrolidin-3-ylamino)-1H-purine-2,6(3H,7H)-dione], the IC50 lay in the range of 10 to 1000 nM.

`CC(=O)NS(=O)(=O)c1ccc(Nc2nc3c(c(=O)n(Cc4cc5c(Cl)cccc5[nH]4)c(=O)n3C)n2C)cc1` [Example 390, N-((4-((1-((4-chloro-1H-indol-2-yl)methyl)-3,7-dimethyl-2,6-dioxo-2,3,6,7-tetrahydro-1H-purin-8-yl)amino)phenyl)sulfonyl)acetamide] yielded a half-inhibitory concentration (IC50) of 10 to 1000 nM.

Consider `Cn1c(N[C@@H]2CC[C@@H](O)C2)nc2c1c(=O)n(Cc1ccc(C(F)(F)F)cc1)c(=O)n2C` (single isomer, unassigned) [Example 76, 8-((1R,3R)-3-hydroxycyclopentylamino)-3,7-dimethyl-1-(4-(trifluoromethyl)benzyl)-1H-purine-2,6(3H,7H)-dione or 8-((1S,3S)-3-hydroxycyclopentylamino)-3,7-dimethyl-1-(4-(trifluoromethyl)benzyl)-1H-purine-2,6(3H,7H)-dione], for which the half-maximal inhibitory concentration (IC50) lay in the range of 1000 to 5000 nM.

Consider `Cn1c(Nc2cccc(CCCO)n2)nc2c1c(=O)n(Cc1ccc(Cl)c(Cl)c1)c(=O)n2C` [Example 293, 1-(3,4-dichlorobenzyl)-8-(6-(3-hydroxypropyl)pyridin-2-ylamino)-3,7-dimethyl-1H-purine-2,6(3H,7H)-dione], for which the concentration for half-maximal inhibition (IC50) lay within 10 to 1000 nM.

`Cn1c(Nc2ccnc([C@H]3C[C@@H]3C(=O)O)c2)nc2c1c(=O)n(Cc1cc3c(Cl)cccc3[nH]1)c(=O)n2C` (racemic) [Example 321, (±)-trans-2-(4-((1-((4-chloro-1H-indol-2-yl)methyl)-3,7-dimethyl-2,6-dioxo-2,3,6,7-tetrahydro-1H-purin-8-yl)amino)pyridin-2-yl)cyclopropanecarboxylic acid] had an IC50 of 10 to 1000 nM.

Turning to `Cn1c(NC2CNC2)nc2c1c(=O)n(Cc1ccc(Cl)c(Cl)c1)c(=O)n2C` [Example 65, 8-[(azetidin-3-yl)amino]-1-[(3,4-dichlorophenyl)methyl]-3,7-dimethyl-2,3,6,7-tetrahydro-1H-purine-2,6-dione], the half-inhibitory concentration (IC50) fell in the range of 1000 to 5000 nM.

`Cn1c(N[C@@H]2CC[C@H](CO)C2)nc2c1c(=O)n(Cc1ccc(Cl)c(Cl)c1)c(=O)n2C` (stereo in doubt) [Example 275, 1-(3,4-dichlorobenzyl)-8-((1R,3S)-3-(hydroxymethyl)cyclopentylamino)-3,7-dimethyl-1H-purine-2,6(3H,7H)-dione] showed an IC50 of 10 to 1000 nM.

For the compound `Cn1c(Nc2ccncc2)nc2c1c(=O)n(Cc1cc3c(Cl)cccc3[nH]1)c(=O)n2C1CC1` [Example 466, 1-[(4-chloro-1H-indol-2-yl)methyl]-3-cyclopropyl-7-methyl-8-(4-pyridylamino)purine-2,6-dione], the 50% inhibitory concentration (IC50) was 10 to 1000 nM.

For the compound `Cn1c(Nc2cnccn2)nc2c1c(=O)n(Cc1ccc(Cl)c(Cl)c1)c(=O)n2C` [Example 126, 1-(3,4-dichlorobenzyl)-3,7-dimethyl-8-(pyrazin-2-ylamino)-1H-purine-2,6(3H,7H)-dione], the half-maximal inhibitory concentration (IC50) fell in the range of 10 to 1000 nM.

In turn, `Cn1c(NCc2ccccc2)nc2c1c(=O)n(Cc1ccc(Cl)c(Cl)c1)c(=O)n2C` [Example 137, 8-(benzylamino)-1-(3,4-dichlorobenzyl)-3,7-dimethyl-1H-purine-2,6(3H,7H)-dione] had a half-inhibitory concentration (IC50) of 5000 to 10000 nM.

In turn, `Cn1c(Nc2ccc(Cl)c(CCC(=O)O)n2)nc2c1c(=O)n(Cc1cc3c(Cl)cccc3[nH]1)c(=O)n2C` [Example 396, 3-(3-chloro-6-(1-((4-chloro-1H-indol-2-yl)methyl)-3,7-dimethyl-2,6-dioxo-2,3,6,7-tetrahydro-1H-purin-8-ylamino)pyridin-2-yl)propanoic acid] had a half-maximal inhibitory concentration (IC50) of 10 to 1000 nM.

`CCn1c(=O)n(Cc2ccc3c(C)cccc3c2)c(=O)c2c1nc(C(C)N)n2C` (stereo not shown) [Example 459, 8-(1-aminoethyl)-3-ethyl-7-methyl-1-((5-methylnaphthalen-2-yl)methyl)-1H-purine-2,6(3H,7H)-dione] gave an IC50 of 10 to 1000 nM.

As for `Cn1c(Cn2c(=O)c3c(nc(N)n3C)n(C)c2=O)cc2cc(Cl)ccc21` [Example 237, 8-amino-1-((5-chloro-1-methyl-1H-indol-2-yl)methyl)-3,7-dimethyl-1H-purine-2,6(3H,7H)-dione], the IC50 lay in the range of 1000 to 5000 nM.

For the compound `Cn1c(N[C@@H]2CCC[C@@H]2C(=O)O)nc2c1c(=O)n(Cc1ccc(C(F)(F)F)cc1)c(=O)n2C` [Example 110, (1S,2R)-2-(3,7-dimethyl-2,6-dioxo-1-(4-(trifluoromethyl)benzyl)-2,3,6,7-tetrahydro-1H-purin-8-ylamino)cyclopentanecarboxylic acid], the IC50 was in the range of 1000 to 5000 nM.

The compound `Cn1c(C(N)C2CCC2)nc2c1c(=O)n(Cc1cc3c(Cl)cccc3[nH]1)c(=O)n2C` (stereo not shown) [Example 443, 8-[amino(cyclobutyl)methyl]-1-[(4-chloro-1H-indol-2-yl)methyl]-3,7-dimethyl-purine-2,6-dione] displayed an IC50 of 10 to 1000 nM.

`Cn1c(=O)n(Cc2cc3c(Cl)cccc3[nH]2)c(=O)c2c1nc(NC1CCCC(C(=O)O)C1)n2CCN` (stereo not shown) [Example 418, 3-(7-(2-aminoethyl)-1-((4-chloro-1H-indol-2-yl)methyl)-3-methyl-2,6-dioxo-2,3,6,7-tetrahydro-1H-purin-8-ylamino)cyclohexanecarboxylic acid] had a half-inhibitory concentration (IC50) of 10 to 1000 nM.

Compound `Cn1c(N)nc2c1c(=O)n(Cc1cc3cc(Cl)ccc3[nH]1)c(=O)n2C` [Example 241, 8-amino-1-((5-chloro-1H-indol-2-yl)methyl)-3,7-dimethyl-1H-purine-2,6(3H,7H)-dione] returned a half-maximal inhibitory concentration (IC50) of 5000 to 10000 nM.

On to `Cn1c(Cn2c(=O)c3c(nc(-n4ncnc4N)n3C)n(C)c2=O)cc2cc(Cl)ccc21` [Example 230, 8-(5-amino-1H-1,2,4-triazol-1-yl)-1-((5-chloro-1-methyl-1H-indol-2-yl)methyl)-3,7-dimethyl-1H-purine-2,6(3H,7H)-dione], for which the IC50 is 10 to 1000 nM.

`Cn1c(NC2CCC(C)(O)C2)nc2c1c(=O)n(Cc1ccc(Cl)c(Cl)c1)c(=O)n2C` (racemic) [Example 164, 1-[(3,4-dichlorophenyl)methyl]-8-[(3-hydroxy-3-methylcyclopentyl)amino]-3,7-dimethyl-2,3,6,7-tetrahydro-1H-purine-2,6-dione] returned a concentration for half-maximal inhibition (IC50) of 10 to 1000 nM.

Compound `Cn1c(NCc2cccnc2)nc2c1c(=O)n(Cc1ccc(Cl)c(Cl)c1)c(=O)n2C` [Example 117, 1-(3,4-dichlorobenzyl)-3,7-dimethyl-8-(pyridin-3-ylmethylamino)-1H-purine-2,6(3H,7H)-dione] came in with an IC50 of 1000 to 5000 nM.
